Results: patent publication US9415030B2 (priority 2008, dated 2016)
Where two headings read alike, the source gives them in different places.

What was measured:
[1] = tested on: human cerebellar granule neurons; settings: cultured cerebellar granule neurons; cited from earlier work
[2] = tested on: cerebellar granule neurons; settings: cultured cerebellar granule neurons; cited from earlier work
[3] = tested on: cognition
Description: Available evidence consists of records for formal cognitive testing, school records from pre-kindergarten through college (in progress), SAT scores, including scores on practice tests in an SAT preparation course, and diary-recorded observations made in parental tutoring sessions occurring from first grade through college.
Preparation for the SAT test included a test preparation course that involved practice tests that simulated actual test conditions. […] It should be noted that both official and unofficial SAT tests were taken in the standard time intervals.
No parental tutoring was given and it should be noted that Subject 1 received no special accommodations in this course.
In the course of these explanations, the importance of these facts was strongly emphasized. One and a half months after the course was over, Subject 1 was again queried by their parent on this topic.

[4] = tested on: OCD, BDD, and ADHD symptoms
Description: Although individual symptoms have varied in intensity over time, the basic spectrum of signs and symptoms appears to have been unchanged over 15 years.
Participation in family gatherings has increased.

[5] = biological target: NMDA co-agonist site (Homo sapiens, UniProt Q05586); settings: 0.8 g/kg body weight/day; cited from earlier work
[6] = clinical; settings: human, in vivo
Description: Hyperammonemia is seen in several abnormal conditions, e.g. inborn errors of metabolism that affect the urea cycle, small bowel syndrome, and others.

[7] = tested on: lupus mice; settings: fed a lot of arginine in their diet; cited from earlier work
[8] = tested on: OCD; assay: Earlier treatments of Subject 1 (SSRIs, atypical neuroleptics, IVIG); assay type: in vivo, human; settings: Subject 1, before glycine treatment
[9] = 1 year after initiation of glycine treatment

CC[C@H]1OC(=O)[C@H](C)[C@@H](O[C@H]2C[C@@](C)(OC)[C@@H](O)[C@H](C)O2)[C@H](C)[C@@H](O[C@@H]2O[C@H](C)C[C@H](N(C)C)[C@H]2O)[C@](C)(OC)C[C@@H](C)C(=O)[C@H](C)[C@@H](O)[C@]1(C)O [clarithromycin]
kainate-mediated excitotoxicity [1]: not kainate-mediated excitotoxicity
NMDA receptor mediated excitotoxic cell death [2]: inhibited NMDA receptor mediated excitotoxic cell death

glycine
college algebra test scores ([3]; 10 and 14 weeks after glycine cessation): low 90% range
college algebra test scores ([3]; 21 and 26 weeks after glycine cessation): low 80% range
improvement of SAT scores during Kaplan preparation course ([3]; course begun six months after starting glycine): approximately 250 points
cognition ([3]; high-dose glycine treatment): cognition improved
memory consolidation and/or retrieval ([3]; nine months after glycine cessation): return of difficulties in memory consolidation and/or retrieval
SAT math score, official test ([3]; sustained glycine treatment): 520
SAT math score, practice test 1 ([3]; sustained glycine treatment): 390
SAT math score, practice test 2 ([3]; sustained glycine treatment): 460
SAT math score, practice test 3 ([3]; sustained glycine treatment): 490
SAT verbal score, official test ([3]; sustained glycine treatment): 660
SAT verbal score, practice test 1 ([3]; sustained glycine treatment): 540
SAT verbal score, practice test 2 ([3]; sustained glycine treatment): 540
SAT verbal score, practice test 3 ([3]; sustained glycine treatment): 600
percentile of official SAT verbal score ([3]; sustained glycine treatment): 90 percentile
intolerance of mirrors [4, 9]: reduced intolerance of mirrors
perseverative behavior during taxi rides [4, 9]: much reduced
decline on glycine cessation ([4]; 6 week cessation with no infection): little or no decline
BDD signs and symptoms after glycine cessation ([4]; 9 month cessation begun May 2006): clear increase in BDD signs and symptoms
line crossing obsession ([4]; Subject 1, during glycine treatment): no signs of the line crossing obsession
time to first behavioral improvement after initiation of glycine treatment ([4]; Subject 1, parent's report): about three
recovery of gains after glycine resumption ([4]; over three months after resumption): previous gains were largely recovered
BDD signs and symptoms ([4]; periods of sustained glycine treatment): continued to improve
NMDA activity [5]: moderately enhanced NMDA activity

N=C(N)NCCC[C@H](N)C(=O)O [arginine, L-arginine]
concentration at 3 h [6]: 98 µM
plasma ammonia concentration [6]: ~94 µM
survival [7]: die more quickly

Fc1ccc([C@@H]2CCNC[C@H]2COc2ccc3c(c2)OCO3)cc1 [Paxil]
response of OCD to treatment [8]: non-responder
